Columns and labels:
[1] = tested on: other receptors, transporters, and kinases; assay: Selectivity for AHR over other receptors, transporters, and kinases
Excerpt: Compound A is a selective AHR antagonist being developed as an orally administered therapeutic. […] Compound A inhibits CYP1A1 and interleukin (IL)-22 gene expression and leads to an increase in pro-inflammatory cytokines, such as IL-2 and IL-9.

[2] = molecular target: T1, AHR (Homo sapiens, UniProt P35869); assay: CYP1B1 gene expression in human whole blood ex vivo, basal and L-kynurenine-induced; type: cell-based; design: endogenous in cells; details: Compound A concentrations >0.5 μM, basal and 20 μM L-kynurenine activated, 24 hours, 2 donors
T1 sequence (P35869 11-848): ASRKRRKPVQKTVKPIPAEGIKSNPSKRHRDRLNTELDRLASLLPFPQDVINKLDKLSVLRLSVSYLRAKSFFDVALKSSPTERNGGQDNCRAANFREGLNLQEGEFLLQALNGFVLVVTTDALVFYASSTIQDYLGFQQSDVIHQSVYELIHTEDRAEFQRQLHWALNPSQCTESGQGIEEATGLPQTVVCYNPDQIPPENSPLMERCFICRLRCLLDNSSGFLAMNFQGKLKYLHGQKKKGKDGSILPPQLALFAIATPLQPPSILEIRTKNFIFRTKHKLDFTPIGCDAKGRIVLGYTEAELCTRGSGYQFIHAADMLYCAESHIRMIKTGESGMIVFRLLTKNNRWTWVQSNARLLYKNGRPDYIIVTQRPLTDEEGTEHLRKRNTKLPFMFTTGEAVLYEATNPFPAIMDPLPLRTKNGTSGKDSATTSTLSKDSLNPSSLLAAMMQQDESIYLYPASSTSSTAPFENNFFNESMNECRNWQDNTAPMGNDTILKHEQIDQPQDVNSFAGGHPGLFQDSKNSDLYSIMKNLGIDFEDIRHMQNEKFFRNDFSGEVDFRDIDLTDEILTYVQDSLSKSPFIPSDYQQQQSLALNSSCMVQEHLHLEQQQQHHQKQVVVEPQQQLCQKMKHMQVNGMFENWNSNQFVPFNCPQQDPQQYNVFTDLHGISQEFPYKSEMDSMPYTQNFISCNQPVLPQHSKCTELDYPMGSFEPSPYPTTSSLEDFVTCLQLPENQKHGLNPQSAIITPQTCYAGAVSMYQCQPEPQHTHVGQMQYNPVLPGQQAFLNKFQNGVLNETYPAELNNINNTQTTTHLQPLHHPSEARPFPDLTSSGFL
Description: To further examine the effects of Compound A on basal and ligand-activated AHR-dependent gene expression in human immune cells, blood samples from 2 healthy human donors were exposed ex vivo to Compound A in the presence or absence of 20 μM L-kynurenine to activate AHR. After 24 hours, cells were evaluated for CYP1B1 gene expression. In whole blood samples without AHR activation, basal levels of CYP1B1 expression were inhibited by Compound A treatment in both donors (FIG. 30A). […] In both donors, Compound A concentrations >0.5 μM inhibited CYP1B1 gene expression by greater than 50% under basal and ligand activated conditions.

[3] = molecular target: T2, AHR (Rattus norvegicus, UniProt P41738); assay: AHR-dependent Cyp1A1 expression (P450-Glo) in rat H411E hepatoma cells stimulated with L-kynurenine; type: cell-based; details: 100 μM L-kynurenine, 24 hours
T2 construct: In rat hepatoma H411E cells treated with 100 μM L-kynurenine; endogenous in cells; host or cells: H411E rat hepatoma cells
T2 sequence (P41738 10-853): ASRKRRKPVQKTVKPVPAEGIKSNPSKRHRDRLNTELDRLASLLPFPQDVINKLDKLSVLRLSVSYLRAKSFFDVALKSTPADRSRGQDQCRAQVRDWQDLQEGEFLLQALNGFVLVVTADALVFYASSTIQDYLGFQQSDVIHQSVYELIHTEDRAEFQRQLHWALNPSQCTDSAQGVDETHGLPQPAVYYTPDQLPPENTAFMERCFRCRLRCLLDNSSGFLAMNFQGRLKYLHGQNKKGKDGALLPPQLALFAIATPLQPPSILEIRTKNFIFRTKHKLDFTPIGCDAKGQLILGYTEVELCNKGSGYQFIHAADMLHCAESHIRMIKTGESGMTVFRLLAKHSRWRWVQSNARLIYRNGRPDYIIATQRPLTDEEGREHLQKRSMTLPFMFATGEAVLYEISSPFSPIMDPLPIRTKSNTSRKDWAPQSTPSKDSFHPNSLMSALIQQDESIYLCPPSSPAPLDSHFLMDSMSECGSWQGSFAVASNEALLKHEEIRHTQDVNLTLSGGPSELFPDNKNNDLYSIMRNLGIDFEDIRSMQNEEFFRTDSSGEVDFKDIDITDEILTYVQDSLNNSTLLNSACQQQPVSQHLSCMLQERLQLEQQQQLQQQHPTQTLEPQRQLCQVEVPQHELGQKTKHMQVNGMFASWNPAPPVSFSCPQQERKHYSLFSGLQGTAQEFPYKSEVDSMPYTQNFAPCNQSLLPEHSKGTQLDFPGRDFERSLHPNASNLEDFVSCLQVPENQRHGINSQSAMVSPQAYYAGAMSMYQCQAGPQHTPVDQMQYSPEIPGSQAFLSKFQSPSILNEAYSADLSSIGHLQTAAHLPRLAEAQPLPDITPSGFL
Description: The ability of Compound A to inhibit AHR-dependent Cyp1A1 gene expression was examined in vitro by measuring changes in Cyp1A1 enzymatic activity in 2 rodent hepatoma cell lines following AHR agonist stimulation. Mouse Hepa1.6 and rat H411E hepatoma cells were treated with AHR agonists VAF347 and L-kynurenine, respectively, in the presence of Compound A at multiple concentrations for 24 hours. The inhibition of Cyp1A1 expression was subsequently evaluated by measuring Cyp1A1 enzyme activity using P450-Glo assays.

[4] = molecular target: T1, AHR; assay: Phase 1 study: pharmacodynamic modulation of AHR target genes in a whole blood assay; type: in vivo; design: endogenous in cells; details: all subjects in the 200 mg, 400 mg, and 800 mg cohorts
Excerpt: Because the starting dose and any higher dose is expected to be near or at the pharmacologically active range, each subject is required to have blood drawn and tumor biopsies for secondary and exploratory pharmacodynamic endpoints. The blood and tumor tissue samples are used to confirm AHR target engagement. Individual subjects can be exempted from the tumor biopsy requirement upon discussion and prior agreement by the Sponsor. The initial sampling strategy is based on the predicted human pharmacodynamics of this compound. If in the course of evaluating the pharmacodynamics, it is determined that an alternative sampling scheme would be more informative, then that alternative sampling scheme can be implemented if the total amount of blood, blood draws, and tumor biopsies obtained for pharmacodynamics is not increased. Moreover, the total number of samples can be decreased at any time if the initial sampling scheme is considered unnecessarily intensive.
Pharmacodynamic (PD) modulation of AHR target genes were analyzed in a whole blood assay.

CC(C)c1cnn2c(N[C@@H]3CCc4[nH]c5ccccc5c4C3)nc(-c3cncc(F)c3)nc12 [Compound A, (R)—N-(2-(5-fluoropyridin-3-yl)-8-isopropylpyrazolo[1,5-a][1,3,5]triazin-4-yl)-2,3,4,9-tetrahydro-1H-carbazol-3-amine]
selectivity for AHR over other receptors, transporters, and kinases [1]: highly selective
inhibition of CYP1B1 gene expression [2]: greater than 50%
IC50 [3]: 0.151 µM
inhibition of expression of AHR target gene CYP1B1 [4]: Robust inhibition
